Laboratory results taken from US11738031B2, “Compositions and methods for preventing or treating muscle conditions” (The Board of Trustees of the Leland Stanford Junior …, priority 2017, dated 2023).
Entries after “also recorded” stand apart in the source; their conditions may differ.

What was measured:
[1] = system: muscle stem cells (MuSCs); test: MuSC proliferation in culture, cell number count (hemocytometer); assay type: cell-based, mouse
Protocol: Muscle stem cell culture, treatment and lentiviral infection: Following isolation, we resuspended MuSCs in myogenic cell culture medium containing DMEM/F10 (50:50), 15% FBS, 2.5 ng ml^−1 fibroblast growth factor-2 (FGF-2 also known as bFGF) and 1% penicillin-streptomycin. We seeded MuSC suspensions at a density of 500 cells per cm^2 surface area. We maintained cell cultures at 37° C. in 5% CO2 and changed medium daily. For PGE2, 15-PGDH inhibitor and EP4 receptor antagonist treatment studies, we added 1-200 ng/ml Prostaglandin E2 (Cayman Chemical) (unless specified in the figure legends, 10 ng/ml was the standard concentration used), and/or 1 μM EP4 antagonist (ONO-AE3-208, Cayman Chemical), or 1 μM 15-PGDH inhibitor (SW033291, Cayman Chemical) to the MuSCs cultured on collagen coated dishes for the first 24 h. The cells were then trypsinized and cells reseeded onto hydrogels for an additional 6 days of culture. All treatments were compared to their solvent (DMSO) vehicle control. For stripped serum assays, we resuspended isolated MuSCs in medium containing DMEM/F10 (50:50), 15% charcoal stripped FBS (Gibco, cat #12676011), 2.5 ng ml^−1 bFGF and 1% penicillin-streptomycin. […]
Proliferation assays: To assay proliferation, we used three different assays (hemocytometer, VisionBlue, and EdU). […] For hemocytometer cell number count, we collected cells at indicated timepoints by incubation with 0.5% trypsin in PBS for 5 min at 37° C. and quantified them using a hemocytometer at least 3 times. Additionally, we used the VisionBlue Quick Cell Viability Fluorometric Assay Kit (BioVision, catalog #K303) as a readout for cell growth in culture. Briefly, we incubated MuSCs with 10% VisionBlue in culture medium for 3 h, and measured fluorescence intensity on a fluorescence plate reader (Infinite M1000 PRO, Tecan) at Ex=530-570 nm, Em=590-620 nm. […] We quantified EdU positive cells using the MetaMorph Image Analysis software (Molecular Devices). Data analyses were blinded, where researchers performing cell scoring were unaware of the treatment condition given to sample groups analyzed. […]

[2] = system: aged MuSCs; test: Clonal aged MuSC proliferation and fate by time-lapse microscopy (48 h); assay type: cell-based, mouse
Description: Clonal muscle stem cell proliferation and fate analyses: We assayed clonal muscle stem cell proliferation by time-lapse microscopy as previously described^56. Briefly, we treated isolated aged MuSCs with PGE2 (Cayman Chemical) or vehicle (DMSO) for 24 hr. After five days of growth on hydrogels, cells were reseeded at a density of 500 cells per cm^2 surface area in hydrogel microwells with 600 μm diameter. For time-lapse microscopy we monitored cell proliferation for those wells with single cells beginning 12 hr (day 0) to two days after seeding and recorded images every 3 min at 10× magnification using a PALM/AxioObserver Z1 system (Carl Zeiss MicroImaging) with a custom environmental control chamber and motorized stage. We changed medium every other day in between the acquisition time intervals. We analyzed time-lapse image sequences using the Baxter Algorithms for Cell Tracking and Lineage Reconstruction to identify and track single cells and generate lineage trees^5,6,8-10.
Viable and dead cells were distinguished in time-lapse sequences based on phase-contrast boundary and motility maintenance or loss, respectively. […] The values were estimated using the equations described in^6, and found in Table 1. We denote the proliferation rates in the two intervals p24 and p48 and the corresponding death rates d24 and d48. […] The modeled cell counts in the two time intervals are given by […]

[3] = PGE2 20 μg (or 4 mg/kg); cited from earlier work
[4] = system: MuSCs transplanted into tibialis anterior (TA) muscles of recipient mice; test: Muscle stem cell transplantation, engraftment by bioluminescence imaging (BLI); assay type: in vivo, mouse; settings: for BLI signal of engrafted MuSCs after secondary (notexin) injury: notexin re-injury one month after transplant
[5] = aged MuSC clones, acute PGE2 treatment, time-lapse 48 h
[6] = first 24 hour interval, aged MuSCs
[7] = second 24 hour interval, aged MuSCs
[8] = transient 1 day PGE2, 48 h tracking

SMILES | MuSC proliferation in medium with charcoal stripped serum ([1]; PGE2 10 ng/ml added to stripped serum medium, 7 days on hydrogels) | increase in the number of MuSCs relative to controls ([1]; PGE2 10 ng/ml, acute 1-day exposure, counted one week later, young MuSCs on hydrogel) [fold] | percent increase in dead cell count [2, 5] [%] | percent increase in live cell count [2, 5] [%] | d24, estimated death rate [2, 6] [per hours] | p24, estimated proliferation rate [2, 6] [per hours] | d48, estimated death rate [2, 7] [per hours] | p48, estimated proliferation rate [2, 7] [per hours] | cell death in aged MuSC clones [2, 8] | proliferation of aged MuSC clones [2, 8] | cumulative cell numbers of aged MuSC clones ([2]; transient 1 day PGE2, 48 h tracking, spanning 6 generations) | tolerability of proposed maximum dose in rodents [3] | regenerative capacity of MuSCs coinjected with PGE2, by BLI ([4]; 250 GFP/Luc MuSCs into injured TAs of NSG mice (Example 3)) | regenerative capacity of cultured PGE2-treated young MuSCs by BLI ([4]; acute 1-day PGE2 in culture, 250 cells transplanted on day 7 into NOD-SCID mice) | BLI signal of engrafted MuSCs after secondary (notexin) injury [4] | engraftment of aged MuSCs coinjected with dmPGE2 ([4]; aged MuSCs, 250 cells, 13 nmol dmPGE2) | engraftment of young MuSCs coinjected with dmPGE2 ([4]; freshly isolated MuSCs, 250 cells, 13 nmol dmPGE2)
CCCCC[C@H](O)/C=C/[C@H]1[C@H](O)CC(=O)[C@@H]1C/C=C\CCCC(=O)O [PGE2, prostaglandin E2] | divided upon addition of PGE2; also recorded: rescued this block in proliferation | 6 | 0.1 | 5.4 | 0.0067 | 0.0475 | 0.0012 | 0.0538 | profound reduction in cell death | marked increase in proliferation | remarkable increase in cumulative cell numbers | without deleterious effects | nearly two orders of magnitude | enhanced by an order of magnitude | spike in BLI signals | – | –
CCCCC(C)(C)[C@H](O)/C=C/[C@H]1[C@H](O)CC(=O)[C@@H]1C/C=C\CCCC(=O)O [dmPGE2, 16,16-dimethyl prostaglandin E2] | – | – | – | – | – | – | – | – | – | – | – | – | – | – | further increased in response to notexin injury | significantly enhanced engraftment | significantly enhanced engraftment
